Results reported in patent US20230314435A1, “MARKER OF CALCIUM-OVERLOAD-MEDIATED NEURONAL DEATH AND APPLICATION THEREOF” (Capital Medical University, priority 2022, published 2023).

Legend:
Hela cells = test: Western blot of autophagy markers (autophagy flux) in Hela wild-type and TLK2 KO cells; type: cell-based; settings: 6 hours
Experimental: Hela cells were collected, and were added in an RIPA lysis buffer added with a protease inhibitor and PMSF (50 mM Tris, 150 mM NaCl, 1% Triton X-100, 1% sodium deoxytholate and 0.1% SDS) for lysis on ice for 30 min. Subsequently, ultrasonication was performed on ice under the conditions of 40 w 3 sec on/3 sec off for 1 minute, centrifugation was performed at 12,000 rpm in a centrifugal machine at 4° C. for 15 min, a supernatant was collected, diluted by an SDS sample-loading buffer and stewed at 95° C. for 5 min. […] of a protein sample was loaded, and gel electrophoresis was performed under a constant voltage of 80 V When bromophenol blue reached the bottom, membrane transfer was performed overnight at a constant current of 130 mA to transfer the protein from a gel onto a PVDF membrane. The membrane was blocked with 5% skim milk at room temperature for 1 hour, and was washed with TBST for three times, with 5 min for each time. A primary antibody properly diluted was incubated overnight at 4° C., and washed with TBST for three times, with 5 min for each time. An HRP secondary antibody was diluted in 1:10000, incubated at room temperature for 1 hour, and washed with TBST for three times, with 5 min for each time. Western blot was developed by ECL chemiluminescence.
In TLK2 KO cells, the LC3-II/LC3-I ratio was increased, and a P62 protein level was reduced (FIG. 14). […] The autophagy is a dynamic process, for which a level may be elevated accurately through a process of testing an autophagy flux. By using a drug to activate or block an autophagy pathway, the autophagy flux smoothness could be evaluated.
Raparnycin (Rapa) was used for activating the autophagy, and bafilomycin A1 (Baf A1) was used for inhibiting the autophagy. Cells were treated with Raparnycin (Rapa, 40 nM) and bafilomycin A1 (Baf A1, 100 nM) for 6 hours, respectively. […] This indicated smooth autophagy flux in the TLK2 KO cells.

[1] = test system: cell calcium-overload model; test: Drug screening in a cell calcium-overload model (LDH assay); type: cell-based; settings: screening of micro-molecule library, PMZ as positive control
Source text: The culture solution was removed, and the cells were washed with PBS. A fresh culture solution was used (it was recommended to use a low serum culture solution containing 1% serum or a suitable serum-free culture solution), and various culture wells were divided into the following groups: cell-free culture solution wells (background blank control wells), control cell wells not treated with a drug (sample control wells), cell wells used for subsequent lysis, not treated with a drug (maximum sample enzyme activity control wells), and drug-treated cell wells (drug-treated sample wells), and these wells were labeled properly.
Proper drug treatment was provided according to experiment requirements, for example, about 0-10 μL of a specific drug was added for stimulation; different concentrations and different treatment time could be set, and suitable drug solvent was required to be added to the control wells for continued culture as routine against the control. At 1 hour before a predetermined testing time point, the cell culture plate was taken out of a cell incubator, an LDH release reagent provided by a reagent kit was added to the “maximum sample enzyme activity control wells”, and the addition amount was equal to 10% of the volume of the original culture solution. After the addition of the LDH release reagent, the cells were blown repeatedly for several times for uniform mixing, and then were incubated in the cell incubator.
After the predetermined time expired, the cell culture plate was centrifuged with a multi-well plate centrifugal machine at 400 g for 5 min. 120 μL of a supernatant was respectively taken from each well and added to corresponding wells of a new 96-well plate for subsequent sample testing. 60 μL of an LDH test working solution was respectively added to each well. […] Then, absorbance was measured at 490 nm. […] Calculation was performed (the background blank control well absorbance was deducted from the measured absorbance of each group). […]

TLK2 [2] = test: In-vitro kinase experiment (ATP consumption, MBP substrate); type: biochemical; settings: TLK2+Ionomycin group compared with normal treatment group
Experimental: 1 μL of ATP (0.2 mM), 1 μg of a TLK2 purified protein and 20 μg of a substrate were added to a 50 μL reaction system, the remaining volume was supplemented with a kinase buffer (10 mM Tris pH 7.5, 50 mM KCL, 10 mM MgCl2 and 1 mM DTT), and a reaction was performed at room temperature for 15 min. An MBP protein was taken as a positive control substrate, and a PGK1 protein was taken as a negative control substrate. 50 ul of a Kinase-Lumi™ superstrong chemiluminescence kinase assay reagent was added and uniformly mixed to have a reaction in the dark at room temperature for 10 min. Then, a multifunctional microplate reader was used for chemiluminescence testing.
TLK2 kinase activity was verified by an in-vitro kinase experiment. In the in-vitro kinase experiment, a myelin basic protein (MBP) could be used as a substrate for multiple kinases, a group to which a TLK2 (No TLK2) protein was not added was taken as a control, and in a normal treatment (TLK2+Control) and an ionomycin treatment group (TLK2+Ionomycin), the same amount of the TLK2 protein reacted with the same amount of the MBP protein. A reduced ATP level reflected the TLK2 kinase activity.

TLK2 [3] = test: Purified GST-TLK2 incubated with lysis buffer of ionomycin-treated (calcium-overload) Hela cells: Commassie staining, phos-tag SDS-PAGE, mass spectrometry; type: biochemical
Experimental: TLK2 cDNA was cloned to a PGEX-6P-1 vector containing a GST tag, a recombinant plasmid was expressed into BL21 chemical competent cells for induced expression at 180 rpm at 20° C. for 20 hours under an induction condition of 0.5 mM IPTG. GST-TLK2 was purified according to the standard steps of Beyotime GST tag protein purification kit. Hela cells were treated with 17 μM ionomycin for 3 hours, and when a cell density reached 70%, the cells were collected. Lysis was performed in a lysis buffer (10 mM Tris, 150 mM NaCl, 2 mM EDTA and 0.5% TritonX-100). Centrifugation was performed at 12,000 rmp at 4° C. for 15 min, and a supernatant was collected. 3 μg of a GST-TLK2 purified protein and 200 μg of a cell lysis buffer were mixed, and placed overnight in a vertical shaker at 4° C. Subsequently, Glutathione. Sepharose 4B condensate beads were added, and rotation proceeded at room temperature for 1 hour. The mixture was washed with WB and IP lysis buffers for 6 times, each of which the mixture was centrifugated in a centrifugal machine at 2,000 rmp at 4° C. for 5 min. The product was diluted by an SDS sample-loading buffer and stewed at 95° C. for 5 min, or a TLK2 protein was cleaved overnight by PreScission Protease at 4° C. The final result was obtained by Commassie staining.
The purified TLK2 protein was incubated with a cell lysis buffer (inducing calcium overload) treated with ionomycin or a normal cell lysis buffer. […] Similar change also appeared after the TLK2 protein was incubated with a TLK2 KO cell lysis buffer treated with the ionomycin.
TLK2 cDNA was cloned to a PGEX-6P-1 vector containing a GST tag, a recombinant plasmid was expressed into BL21 chemical competent cells for induced expression at 180 rpm at 20° C. for 20 hours under an induction condition of 0.5 mM IPTG. GST-TLK2 was purified according to the standard steps of Beyotime GST tag protein purification kit. […]
Phos-tag was a functional molecule which could be in specific binding with phosphate ions. […] The content of the phosphorylated protein could be analyzed by the change in the migration rate. […]

[4] = wild-type Hela cells, Rapa 40 nM or Baf A1 100 nM
[5] = lysis buffer of Hela cells treated with 17 μM ionomycin for 3 hours

SMILES | LC3-II/LC3-I ratio (Hela cells; [4]) | P62 protein level (Hela cells; [4]) | calcium-overload injury inhibition activity [1] | further results
CO/C1=C\C(C)=C\[C@@H](C)[C@@H](O)[C@@H](C)C/C(C)=C/C=C/[C@H](OC)[C@@H]([C@@H](C)[C@@H](O)[C@H](C)[C@@]2(O)C[C@@H](O)[C@H](C)[C@@H](C(C)C)O2)OC1=O [Baf A1, bafilomycin A1] | elevated | elevated | – | autophagy activated by TLK2 KO (Hela cells; TLK2 KO Hela cells, Baf A1 100 nM): blocked
CC[C@@H]1C(=O)N(C)c2cnc(Nc3ccc(C(=O)N[C@H]4CC[C@H](N5CCN(CC6CC6)CC5)CC4)cc3OC)nc2N1C(C)C [Volasertib] | – | – | had calcium-overload injury inhibition activity | –
C[C@H](CCC(=O)O)C[C@H](C)C[C@H](C)C(=O)/C=C(\O)[C@H](C)C[C@H](C)C/C=C/[C@@H](C)[C@@H](O)[C@@H](C)[C@@H](O)C[C@@H]1CC[C@@](C)([C@H]2CC[C@@](C)([C@@H](C)O)O2)O1 [ionomycin, Ionomycin] | – | – | – | TLK2 kinase activity (ATP consumption) (TLK2 [2]): could consume much ATP; GST-TLK2 protein band (Commassie staining) (TLK2 [3]; [5]): moved upward; additional TLK2 phosphorylation sites compared with the control group (mass spectrometry) (TLK2 [3]; [5]): 15; TLK2 phosphorylation (phos-tag SDS-PAGE) (TLK2 [3]; normal and TLK2 KO cell lysis buffer after 17 μM ionomycin, 3 hours): could promote TLK2 phosphorylation
O=C(O[C@@H]1Cc2c(O)cc(O)cc2O[C@@H]1c1cc(O)c(O)c(O)c1)c1cc(O)c(O)c(O)c1 [Epigallocatechin Gallate] | – | – | had calcium-overload injury inhibition activity | –
O=c1[nH]c(C2CCCN2)nc2c1oc1ccc(Cl)cc12 (stereo not shown) [XL413] | – | – | had calcium-overload injury inhibition activity | –
CO[C@H]1C[C@@H]2CC[C@@H](C)[C@@](O)(O2)C(=O)C(=O)N2CCCC[C@H]2C(=O)O[C@H]([C@H](C)C[C@@H]2CC[C@@H](O)[C@H](OC)C2)CC(=O)[C@H](C)/C=C(\C)[C@@H](O)[C@@H](OC)C(=O)[C@H](C)C[C@H](C)/C=C/C=C/C=C/1C [Rapa, Raparnycin] | increased | reduced | – | P62 protein level (Hela cells; TLK2 KO Hela cells, Rapa 40 nM): further reduce
